Cc1c(C(=O)c2c[nH]n(C)c2=O)ccc(S(C)(=O)=O)c1C1=NOCC1
solubility (mole fraction)
Conditions	283.15 K	288.15 K	293.15 K	298.15 K	303.15 K	308.15 K	313.15 K	318.15 K	323.15 K
in THF	0.00274	0.0031	0.00351	0.00397	0.00449	0.00509	0.00576	0.00652	0.00738
in acetone	0.00112	0.0013	0.00151	0.00176	0.00204	0.00236	0.00274	0.00318	0.0037
in acetonitrile	0.000648	0.000778	0.000934	0.00112	0.00134	0.00161	0.00194	0.00232	0.00279
in ethanol	6.16e-05	8.08e-05	0.000106	0.000139	0.000182	0.000239	0.000314	0.000412	0.000541
in ethyl acetate	0.000521	0.000624	0.000747	0.000894	0.00107	0.00128	0.00153	0.00183	0.0022
in isobutanol	4.16e-05	5.6e-05	7.53e-05	0.000101	0.000137	0.000184	0.000247	0.000333	0.000449
in isobutyl acetate	0.000421	0.000481	0.000549	0.000627	0.000716	0.000818	0.000934	0.00107	0.00122
in isopropanol	3.8e-05	5.11e-05	6.87e-05	9.23e-05	0.000124	0.000167	0.000224	0.000302	0.000405
in isopropyl acetate	0.000297	0.000353	0.00042	0.000499	0.000594	0.000706	0.000839	0.000997	0.00119
in methanol	0.000139	0.000173	0.000215	0.000267	0.000333	0.000414	0.000516	0.000642	0.000799
in methyl acetate	0.000989	0.00116	0.00135	0.00157	0.00184	0.00215	0.00251	0.00293	0.00342
in n-butanol	6.22e-05	8.09e-05	0.000105	0.000137	0.000178	0.000232	0.000301	0.000392	0.00051
in n-butyl acetate	0.000355	0.000419	0.000495	0.000584	0.00069	0.000815	0.000962	0.00114	0.00134
in n-propanol	5.61e-05	7.35e-05	9.63e-05	0.000126	0.000165	0.000217	0.000284	0.000372	0.000488
in n-propyl acetate	0.000415	0.000496	0.000594	0.00071	0.000849	0.00101	0.00121	0.00145	0.00173
in toluene	0.000256	0.0003	0.00035	0.00041	0.000479	0.00056	0.000655	0.000766	0.000895
